According to patent US4315935A, “N,N'-Bis[substituted-1,2,3,4-tetrahydroisoquinolinolyl]disulfonylimides and antiallergic compositions and method of use” (SmithKline Corporation, priority 1980, dated 1982):

Tested on: SRS-A
Assay: inhibition of SRS-A induced contraction of guinea pig ileum
Format: cell-based
Settings: Cavia porcellus, 0.25 h; for inhibition at 5 µM: read-out: […], compound concentration 5 × 10^-6 M, SRS-A agonist 40 μg/ml, read-out: PERCENTAGE ANTAGONISM; for inhibition at 1 µM: read-out: […], compound concentration 1 × 10^-6 M, SRS-A agonist 40 μg/ml, read-out: PERCENTAGE ANTAGONISM
Procedure: The SRS-A antagonist activity of the compounds of this invention is measured by the ability of the active medicament to inhibit SRS-A induced contraction of guinea pig ileum. In this test system, sections of ileum are resected from guinea pigs and placed in 5 ml. tissue baths containing a modified Tyrode's solution. One end of the tissue is fixed to a glass tissue holder, the other is connected to a force-displacement transducer and the tissue is placed under a tension of 500 mg. Isometric tissue contractions are recorded on a six channel polygraph. Baths are constantly aerated with 95% O2 -5% CO2. After a 20 minute stabilization period a concentration of the appropriate agonist which provides a contraction height of 60-80% of the maximum obtainable to that agonist (as determined from full sequential concentration--response curves in separate experiments) is added to the tissue bath and the response recorded. The procedure is repeated until reproducible responses are obtained. For most agonists, two applications in rapid succession, followed 15 minutes later by a third, is sufficient to establish reproducibility. Experimental tissues are incubated with the selected concentration of the test compounds for 15 minutes. Experimental and control tissues are subjected to 5 bath changes during the incubation interval. Changes in bath fluid during the incubation period are helpful in insuring the reproducibility of tissue responses to the agonist. The same concentration of the agonist is reapplied in the presence of the test compound and the response registered and compared with controls. Percent inhibition produced by the test compound is calculated by substracting the mean percentage change in control tissue from the means percentage change in tissues exposed to the test compound. Additional compounds are then evaluated as long as the tissue remains reproducibly responsive to the agonist. Six tissues obtained from 6 animals are used simultaneously--3 controls and 3 experimental.
The compounds of this invention tested at concentrations of from 5×10^-5 M to 1×10^-6 M produce marked antagonism of partially purified slow reacting substance of anaphylaxis obtained from guinea pig lung. The agonist is employed at a concentration of 40 μg/ml. Representative of this effect, tabulated below are a number of the claimed compounds and percentage antagonism of SRS-A at various compound concentrations.

SMILES	inhibition at 5 µM [%]	inhibition at 1 µM [%]
O=S(=O)(Nc1cccc(Cl)c1)c1ccc2c(c1)CN(S(=O)(=O)NS(=O)(=O)N1CCc3ccc(S(=O)(=O)Nc4cccc(Cl)c4)cc3C1)CC2 [Compound 1, N,N'-bis[7-(3-chlorobenzeneaminosulfonyl)-1,2,3,4-tetrahydroisoquinolyl]disulfonylimide]	67.5	–
O=S(=O)(Nc1ccccc1)c1ccc2c(c1)CN(S(=O)(=O)NS(=O)(=O)N1CCc3ccc(S(=O)(=O)Nc4ccccc4)cc3C1)CC2 [Compound 2]	42.3	–
O=S(=O)(Nc1ccccc1Cl)c1ccc2c(c1)CN(S(=O)(=O)NS(=O)(=O)N1CCc3ccc(S(=O)(=O)Nc4ccccc4Cl)cc3C1)CC2 [Compound 3]	24.8	–
O=S(=O)(Nc1ccc(Cl)cc1)c1ccc2c(c1)CN(S(=O)(=O)NS(=O)(=O)N1CCc3ccc(S(=O)(=O)Nc4ccc(Cl)cc4)cc3C1)CC2 [Compound 4]	51.2	–
O=S(=O)(Nc1cccc(Br)c1)c1ccc2c(c1)CN(S(=O)(=O)NS(=O)(=O)N1CCc3ccc(S(=O)(=O)Nc4cccc(Br)c4)cc3C1)CC2 [Compound 5]	68	54
O=S(=O)(Nc1ccc(Br)cc1)c1ccc2c(c1)CN(S(=O)(=O)NS(=O)(=O)N1CCc3ccc(S(=O)(=O)Nc4ccc(Br)cc4)cc3C1)CC2 [Compound 6]	42.2	–
O=S(=O)(Nc1cccc(C(F)(F)F)c1)c1ccc2c(c1)CN(S(=O)(=O)NS(=O)(=O)N1CCc3ccc(S(=O)(=O)Nc4cccc(C(F)(F)F)c4)cc3C1)CC2 [Compound 7]	65	–
O=S(=O)(Nc1ccc(C(F)(F)F)cc1)c1ccc2c(c1)CN(S(=O)(=O)NS(=O)(=O)N1CCc3ccc(S(=O)(=O)Nc4ccc(C(F)(F)F)cc4)cc3C1)CC2 [Compound 8]	57	49
O=[N+]([O-])c1cccc(NS(=O)(=O)c2ccc3c(c2)CN(S(=O)(=O)NS(=O)(=O)N2CCc4ccc(S(=O)(=O)Nc5cccc([N+](=O)[O-])c5)cc4C2)CC3)c1 [Compound 9]	36	–
O=S(=O)(Nc1ccc(Cl)c(Cl)c1)c1ccc2c(c1)CN(S(=O)(=O)NS(=O)(=O)N1CCc3ccc(S(=O)(=O)Nc4ccc(Cl)c(Cl)c4)cc3C1)CC2 [Compound 11]	56	49
O=S(=O)(Nc1ccc(Cl)c(C(F)(F)F)c1)c1ccc2c(c1)CN(S(=O)(=O)NS(=O)(=O)N1CCc3ccc(S(=O)(=O)Nc4ccc(Cl)c(C(F)(F)F)c4)cc3C1)CC2 [Compound 12]	91.5	41
Cc1ccc(NS(=O)(=O)c2ccc3c(c2)CN(S(=O)(=O)NS(=O)(=O)N2CCc4ccc(S(=O)(=O)Nc5ccc(C)c(C)c5)cc4C2)CC3)cc1C [Compound 13]	62	–
Cc1ccc(NS(=O)(=O)c2ccc3c(c2)CN(S(=O)(=O)NS(=O)(=O)N2CCc4ccc(S(=O)(=O)Nc5ccc(C)c(Cl)c5)cc4C2)CC3)cc1Cl [Compound 14]	84	–
CN(c1ccc(Cl)cc1)S(=O)(=O)c1ccc2c(c1)CN(S(=O)(=O)NS(=O)(=O)N1CCc3ccc(S(=O)(=O)N(C)c4ccc(Cl)cc4)cc3C1)CC2 [Compound 15]	57.3	–
O=S(=O)(Nc1cccc(Cl)c1)c1c(Cl)ccc2c1CN(S(=O)(=O)NS(=O)(=O)N1CCc3ccc(Cl)c(S(=O)(=O)Nc4cccc(Cl)c4)c3C1)CC2 [Compound 23, N,N'-Bis[7-Chloro-8-(3-Chlorobenzeneaminosulfonyl)-1,2,3,4-Tetrahydroisoquinolyl]disulfonylimide]	48	–
O=S(=O)(Nc1cccc(Cl)c1)c1ccc(Cl)c2c1CCN(S(=O)(=O)NS(=O)(=O)N1CCc3c(S(=O)(=O)Nc4cccc(Cl)c4)ccc(Cl)c3C1)C2 [Compound 30, N,N'-bis[8-chloro-5-(3-chlorobenzeneaminosulfonyl)-1,2,3,4-tetrahydroisoquinolyl]disulfonylimide]	63	–
